Experimental data from patent publication US20240226085A1, “KYNRENINE AND DERIVATIVES THEREOF FOR TREATING ATROPHIC SCARRING” (BirchBioMed Inc., priority 2021, published 2024).

Assays:
[1] = tested on: rabbit ear hypertrophic scarring model; settings: topical application to skin tissue; '523 FIG. 13; cited from earlier work
[2] = tested on: atrophic acne scarring on the face; test: Topical kynurenic acid (0.5% by weight) cream for reducing appearance of atrophic acne scarring (individual user reports); assay type: in vivo, human; settings: person
From the text: FIG. 1A is a photographic representation of a target facial skin area of a subject with treatment-resistant stable atrophic scarring from acne before application of topical kynurenic acid (0.5% by weight) cream.
FIG. 1B is a photographic representation of the target facial skin area of the subject of FIG. 1A after bidaily use of topical kynurenic acid (0.5% by weight) for 8 weeks. […] The dashed black box in each image highlights the similar target area on the right cheek region in both images for comparison.
I. A topical cream was made as follows, kynurenic acid was solubilized in a phosphate buffered solution of 1 M NaOH and the pH was then adjusted to 5.5 at room temperature, this KynA solution was then added with steady mixing to a dermatological compounding base (Glaxal Base™, WellSpring, Ont., Canada) and adjusted to a pH of 6 before packaging in poly bottles. Topical cream was made at 0.15%, 0.25%, 0.4%, and 0.5% kynurenic acid by weight (Papp et al., 2018).
A person presented with significant atrophic acne scarring on the face and self-reported that their acne scars had been treatment resistant for >20 years. The person applied a topical cream containing 0.5% kynurenic acid by weight twice daily for a 3-month period to the site of the atrophic acne scarring, an application rate of approximately 17 ug of kynurenic acid per cm^2 of skin per application. Initial dermatological healing can be followed by visual inspection of the site. […] An illustrative image of the “before” and “during use” is shown as FIG. 1.
A person with atrophic acne scarring on the face self-reported that the scars were “mature”, “stable”, and had persisted for “>3 years”. The person applied a topical cream containing 0.5% kynurenic acid by weight once daily for a 2-month period at an application rate of approximately 2.5-5 micrograms kynurenic acid per square cm of skin per application.

[3] = tested on: dermal fibroblasts; settings: cited from earlier work

Row | Compound | MMP-1 relative to controls [1] | collagen relative to controls [1] | remarks of others on the user's atrophic acne scars ([2]; topical cream 0.5% by weight once daily, 2-month period) | user-reported appearance of holes and indents of atrophic acne scars ([2]; topical cream 0.5% by weight once daily, 2-month period, approx. 2.5-5 micrograms per square cm per application) | time at which the reported reduction in appearance started ([2]; topical cream 0.5% by weight twice daily) | unsolicited feedback from others on appearance of acne [atrophic scarring] ([2]; topical cream 0.5% by weight twice daily, 3-month period) | subject-reported perceived appearance of atrophic acne scarring ([2]; topical cream 0.5% by weight twice daily, 3-month period, approx. 17 ug per cm^2 per application) | MMP-1 expression ([3]; '523 FIG. 2) | MMP-3 expression ([3]; '523 FIG. 3) | collagen 1 expression ([3]; '523 FIG. 10) | fibronectin expression ([3]; '523 FIG. 16)
1 | Nc1ccccc1C(=O)CC(N)C(=O)O (racemic) [kynurenine] | increased | decreased | – | – | – | – | – | – | – | – | –
2 | O=C(O)c1cc(=O)c2ccccc2[nH]1 [kynurenic acid] | – | – | less visible or less noticeable | less visible and less noticeable and appeared to be filling in | approximately 2 weeks | markedly less apparent | significant reduction | increase | increase | downregulate | downregulate
